The record followed here is ChEMBL document CHEMBL4402510, “Caprazamycins: Promising lead structures acting on a novel antibacterial target MraY” (Eur J Med Chem, 2019).

pIC50: −log10 of the molar value. ≈ marks a conversion by molar mass, not a printed value. Some results are limits rather than exact numbers.

Test [1] concerns the target Phospho-N-acetylmuramoyl-pentapeptide-transferase (Escherichia coli, UniProt E2QF15). Briefly: Inhibition of MraY in Escherichia coli.
Test [2] deals with Staphylococcus aureus. Briefly: Antibacterial activity against methicillin resistant Staphylococcus aureus. Type of test: functional, organism-based.
Test [3] concerns Escherichia coli. Briefly: Antibacterial activity against Escherichia coli ATCC 8730. Type of test: functional.
The target in test [4] is T1, Phospho-N-acetylmuramoyl-pentapeptide-transferase (Bacillus subtilis (strain 168), UniProt Q03521).
T1 sequence (Q03521 whole entry): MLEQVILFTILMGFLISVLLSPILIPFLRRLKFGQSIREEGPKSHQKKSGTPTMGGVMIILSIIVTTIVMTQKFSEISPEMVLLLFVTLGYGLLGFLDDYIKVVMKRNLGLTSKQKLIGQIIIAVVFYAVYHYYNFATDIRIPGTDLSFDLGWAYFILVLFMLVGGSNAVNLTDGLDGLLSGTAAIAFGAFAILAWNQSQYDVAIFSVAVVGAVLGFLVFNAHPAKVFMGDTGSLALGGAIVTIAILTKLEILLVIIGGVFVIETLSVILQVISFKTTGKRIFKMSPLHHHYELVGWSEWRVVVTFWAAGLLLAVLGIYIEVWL
Briefly: Inhibition of MraY in Bacillus subtilis.

Test [5] has as its system Staphylococcus aureus. The test is described as follows: Antibacterial activity against methicillin resistant Staphylococcus aureus ATCC 43300. Type of test: functional.
In test [6] the test system is Pseudomonas aeruginosa. The test is described as follows: Antibacterial activity against Pseudomonas aeruginosa ATCC 27853. Type of test: functional.
In test [7] the test system is Enterococcus faecium. The test is described as follows: Antibacterial activity against Enterococcus faecium ATCC 19434. Type of test: functional.
For the next test, the system named is Citrobacter freundii. Briefly: Antibacterial activity against Citrobacter freundii ATCC 8090. Type of test: functional.
Test [8] has as its system Staphylococcus aureus. The test is described as follows: Antibacterial activity against Staphylococcus aureus ATCC 25923. Type of test: functional.
The target in test [9] is T1, Phospho-N-acetylmuramoyl-pentapeptide-transferase. Briefly: Inhibition of MraY in Bacillus subtilis using UDP-MurNAc-[14C]pentapeptide as substrate by radioactivity scanning assay.
In test [10] the test system is Mycolicibacterium smegmatis. Briefly: Antibacterial activity against Mycobacterium smegmatis. Type of test: functional.
For test [11], the system named is Mycobacterium intracellulare. The test is described as follows: Antibacterial activity against Mycobacterium intracellulare. Type of test: functional.
The next test has as its system Mycobacterium avium. Briefly: Antibacterial activity against Mycobacterium avium. Type of test: functional.
For a further test, the system named is Mycolicibacterium vaccae. Briefly: Antibacterial activity against Mycobacterium vaccae. Type of test: functional.
Test [12] concerns Mycobacterium tuberculosis. Briefly: Antibacterial activity against Mycobacterium tuberculosis. Type of test: functional.
For test [13], the target named is T2, Phospho-N-acetylmuramoyl-pentapeptide-transferase (Aquifex aeolicus (strain VF5), UniProt O66465).
T2 sequence (O66465 whole entry): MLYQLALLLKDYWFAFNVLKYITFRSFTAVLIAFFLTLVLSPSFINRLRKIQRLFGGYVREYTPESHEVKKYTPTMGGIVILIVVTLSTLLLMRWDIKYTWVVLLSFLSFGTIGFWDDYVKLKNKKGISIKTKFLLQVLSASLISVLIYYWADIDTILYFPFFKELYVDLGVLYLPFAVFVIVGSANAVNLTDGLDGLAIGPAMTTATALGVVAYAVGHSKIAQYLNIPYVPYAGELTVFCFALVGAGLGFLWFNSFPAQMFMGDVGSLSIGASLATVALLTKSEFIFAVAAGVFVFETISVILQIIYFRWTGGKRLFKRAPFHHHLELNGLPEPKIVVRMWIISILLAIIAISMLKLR
The test is described as follows: Inhibition of MraY in Aquifex aeolicus.

For test [14], the system named is Staphylococcus aureus. The test is described as follows: Antibacterial activity against methicillin susceptible Staphylococcus aureus after 20 hrs by NCCLS-based two-fold broth dilution method. Type of test: functional. Particulars: read-out: MIC. For orientation: Broth dilution looks for growth in wells or tubes with falling amounts of substance.
The subject of test [15] is Staphylococcus aureus. Briefly: Antibacterial activity against methicillin resistant Staphylococcus aureus after 20 hrs by NCCLS-based two-fold broth dilution method. Type of test: functional. Particulars: read-out: MIC.
Test [16] relates to Pseudomonas aeruginosa. The test is described as follows: Antibacterial activity against Pseudomonas aeruginosa PAO1 deltamexB. Type of test: functional.
Test [17] has as its system Pseudomonas aeruginosa. Briefly: Antibacterial activity against Pseudomonas aeruginosa YY165. Type of test: functional.
In test [18] the test system is Enterococcus faecium. The test is described as follows: Antibacterial activity against t Enterococcus faecium VRE after 20 hrs by NCCLS-based two-fold broth dilution method. Type of test: functional. Particulars: read-out: MIC.
The test system of test [19] is Enterococcus faecalis. Briefly: Antibacterial activity against t Enterococcus faecalis after 20 hrs by NCCLS-based two-fold broth dilution method. Type of test: functional. Particulars: read-out: MIC.
The subject of test [20] is Haemophilus influenzae. The test is described as follows: Antibacterial activity against Haemophilus influenzae ATCC 10211. Type of test: functional.
The subject of test [21] is Pseudomonas aeruginosa. The test is described as follows: Antibacterial activity against Pseudomonas aeruginosa after 20 hrs by NCCLS-based two-fold broth dilution method. Type of test: functional.
In test [22] the test system is Escherichia coli. The test is described as follows: Antibacterial activity against Escherichia coli after 20 hrs by NCCLS-based two-fold broth dilution method. Type of test: functional.
Test [23] concerns Enterococcus faecalis. Briefly: Antibacterial activity against Enterococcus faecalis ATCC 29212. Type of test: functional.
The test system of test [24] is Escherichia coli. Briefly: Antibacterial activity against Escherichia coli ATCC 25922. Type of test: functional.
Test [25] relates to Enterococcus faecium. Briefly: Antibacterial activity against t Enterococcus faecium after 20 hrs by NCCLS-based two-fold broth dilution method. Type of test: functional.
Another test has as its system Streptococcus pneumoniae. The test is described as follows: Antibacterial activity against Streptococcus pneumoniae. Type of test: functional.
Test [26] addresses T3, Phospho-N-acetylmuramoyl-pentapeptide-transferase (Staphylococcus aureus, UniProt P0C1R8).
T3 sequence (P0C1R8 whole entry): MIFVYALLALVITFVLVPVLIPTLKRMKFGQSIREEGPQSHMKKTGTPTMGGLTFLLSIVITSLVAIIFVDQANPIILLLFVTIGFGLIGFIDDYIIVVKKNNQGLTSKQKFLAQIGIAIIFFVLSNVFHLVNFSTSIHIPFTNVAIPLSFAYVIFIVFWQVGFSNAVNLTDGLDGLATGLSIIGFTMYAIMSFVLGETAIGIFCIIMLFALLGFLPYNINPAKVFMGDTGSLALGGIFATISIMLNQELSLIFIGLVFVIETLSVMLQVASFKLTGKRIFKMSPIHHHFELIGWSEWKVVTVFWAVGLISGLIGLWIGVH
The test is described as follows: Inhibition of MraY in Staphylococcus aureus.

The next test concerns Acinetobacter baumannii. The test is described as follows: Antibacterial activity against Acinetobacter baumannii ATCC 19606. Particulars: ATCC 19606 = CIP 70.34 = JCM 6841. Type of test: functional.
For test [27], the system named is Haemophilus influenzae. Briefly: Antibacterial activity against Haemophilus influenzae after 20 hrs by NCCLS-based two-fold broth dilution method. Type of test: functional.
In test [28] the test system is Staphylococcus aureus. The test is described as follows: Antibacterial activity against methicillin resistant Staphylococcus aureus SR3637. Type of test: functional.
In test [29] the test system is Staphylococcus aureus. The test is described as follows: Antibacterial activity against methicillin susceptible Staphylococcus aureus ATCC 29213. Type of test: functional.
Test [30] has as its system Enterococcus faecalis. The test is described as follows: Antibacterial activity against t Enterococcus faecalis VRE after 20 hrs by NCCLS-based two-fold broth dilution method. Type of test: functional. Particulars: read-out: MIC.
Test [31] has as its system Enterococcus faecium. Briefly: Antibacterial activity against Enterococcus faecium SR7917 (VRE). Type of test: functional.
Test [32] deals with Enterococcus faecalis. The test is described as follows: Antibacterial activity against Enterococcus faecalis SR7914 (VRE). Type of test: functional.

Chain of Phospho-N-acetylmuramoyl-pentapeptide-transferase (Escherichia coli, UniProt E2QF15) (E2QF15 whole entry): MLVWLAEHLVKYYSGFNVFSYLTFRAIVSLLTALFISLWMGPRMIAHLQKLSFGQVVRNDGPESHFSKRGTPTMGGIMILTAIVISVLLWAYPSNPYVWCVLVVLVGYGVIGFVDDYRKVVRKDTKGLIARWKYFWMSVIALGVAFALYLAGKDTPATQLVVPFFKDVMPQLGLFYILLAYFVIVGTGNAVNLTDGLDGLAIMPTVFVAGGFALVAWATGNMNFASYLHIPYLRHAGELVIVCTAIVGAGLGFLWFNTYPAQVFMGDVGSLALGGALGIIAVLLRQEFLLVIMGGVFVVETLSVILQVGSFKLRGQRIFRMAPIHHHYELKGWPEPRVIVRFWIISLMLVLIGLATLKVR

For `NC[C@H]1O[C@@H](O[C@@H](CO)[C@H]2O[C@@H](n3ccc(=O)[nH]c3=O)[C@H](O)[C@@H]2O)[C@H](O)[C@@H]1O`, in test [1], the pIC50 is 5.30.

With `NC[C@H]1O[C@@H](O[C@@H](c2cn(CCCCCCCCCCOc3ccc(C(=O)c4ccccc4)cc3)nn2)[C@H]2O[C@@H](n3ccc(=O)[nH]c3=O)[C@H](O)[C@@H]2O)[C@H](O)[C@@H]1O`, the figures for the pIC50 (with Staphylococcus aureus [2]; in [4]; in test [9]) were 4.00, 3.90 and 4.00, respectively. In addition, the MIC was above 128 µg/mL against Escherichia coli [3]; 8 µg/mL (≈ 10.3 µM) against Staphylococcus aureus [5]; above 128 µg/mL in the test on Pseudomonas aeruginosa [6]; above 128 µg/mL against Enterococcus faecium [7]; above 128 µg/mL in the test with Citrobacter freundii; 8 µg/mL (≈ 10.3 µM) with Staphylococcus aureus [8].

On to `CCCCCCCCCCCCC[C@@H](CC(=O)O[C@H]1CN(C)[C@@H]([C@H](O[C@@H]2O[C@H](CN)[C@@H](O)[C@H]2O)[C@H]2O[C@@H](n3ccc(=O)[nH]c3=O)[C@H](O)[C@@H]2O)C(=O)N(C)[C@@H]1C(=O)O)OC(=O)C[C@H](C)CC(=O)O[C@@H]1O[C@@H](C)[C@H](OC)[C@@H](OC)[C@H]1OC`, for which the MIC is 0.78 to 1.56 µg/mL (≈ 0.68 to 1.36 µM) in test [10]; 0.78 µg/mL (≈ 0.68 µM) in test [11]; below 0.025 µg/mL in the test on Mycobacterium avium; 0.2 µg/mL (≈ 0.174 µM) against Mycolicibacterium vaccae; 1.56 µg/mL (≈ 1.36 µM) in test [12].

For `NC[C@H]1O[C@@H](O[C@H]([C@H]2O[C@@H](n3ccc(=O)[nH]c3=O)[C@H](O)[C@@H]2O)n2cc(CCCCCCCCCCOc3ccc(C(=O)c4ccccc4)cc3)nn2)[C@H](O)[C@@H]1O`, in the test on Staphylococcus aureus [2], the MIC amounted to 8 µg/mL (≈ 10.3 µM). In test [13], the pIC50 is 4.60.

Regarding `CCCCCCCCCCCCCCCC(=O)N[C@@H]1CCN[C@@H]([C@H](O[C@@H]2O[C@H](CN)[C@@H](O)[C@H]2O)[C@H]2O[C@@H](n3ccc(=O)[nH]c3=O)[C@H](O)[C@@H]2O)C1`, the MIC is 8 µg/mL (≈ 11.2 µM) with Staphylococcus aureus [14]; 16 µg/mL (≈ 22.5 µM) in the test with Staphylococcus aureus [15]; above 64 µg/mL in the test on Pseudomonas aeruginosa [16]; 32 µg/mL (≈ 45 µM) against Pseudomonas aeruginosa [17]; 8 µg/mL (≈ 11.2 µM) with Enterococcus faecium [18]; 4 µg/mL (≈ 5.62 µM) in the test with Enterococcus faecalis [19]. The MIC was 32 µg/mL (≈ 45 µM) against Haemophilus influenzae [20]; 32 µg/mL (≈ 45 µM) with Pseudomonas aeruginosa [21]; 4 µg/mL (≈ 5.62 µM) against Escherichia coli [22]; 4 µg/mL (≈ 5.62 µM) in the test with Enterococcus faecalis [23]; above 64 µg/mL against Escherichia coli [24]; 2 µg/mL (≈ 2.81 µM) with Enterococcus faecium [25]. In addition, the MIC against Streptococcus pneumoniae is 64 µg/mL (≈ 89.9 µM); against Enterococcus faecium [7], 8 µg/mL (≈ 11.2 µM); in the test on Acinetobacter baumannii it was above 64 µg/mL; against Haemophilus influenzae [27], 32 µg/mL (≈ 45 µM); in the test with Staphylococcus aureus [28], 16 µg/mL (≈ 22.5 µM); against Staphylococcus aureus [29], 8 µg/mL (≈ 11.2 µM). The values for the MIC in the test with Enterococcus faecalis [30], with Enterococcus faecium [31] and in the test with Enterococcus faecalis [32] were 2 µg/mL (≈ 2.81 µM), 4 µg/mL (≈ 5.62 µM) and 2 µg/mL (≈ 2.81 µM), respectively. The same compound had a pIC50 in test [26] of 4.62.

The term pIC50 denotes −log10 of the IC50, conventionally taken in molar units.
